Assay results as given in patent US20200291018A1, “TAM KINASE INHIBITORS” (SYROS PHARMACEUTICALS, INC., priority 2017, published 2020).
Where a name gives a salt, the structure may show the parent alone.

Experiments:
AXL = biological target: T1, AXL (Homo sapiens, UniProt P30530); experiment: TR-FRET kinase activity assay, AXL; type: biochemical; conditions: ATP at Km, 60 minutes
T1 sequence (P30530 26-894): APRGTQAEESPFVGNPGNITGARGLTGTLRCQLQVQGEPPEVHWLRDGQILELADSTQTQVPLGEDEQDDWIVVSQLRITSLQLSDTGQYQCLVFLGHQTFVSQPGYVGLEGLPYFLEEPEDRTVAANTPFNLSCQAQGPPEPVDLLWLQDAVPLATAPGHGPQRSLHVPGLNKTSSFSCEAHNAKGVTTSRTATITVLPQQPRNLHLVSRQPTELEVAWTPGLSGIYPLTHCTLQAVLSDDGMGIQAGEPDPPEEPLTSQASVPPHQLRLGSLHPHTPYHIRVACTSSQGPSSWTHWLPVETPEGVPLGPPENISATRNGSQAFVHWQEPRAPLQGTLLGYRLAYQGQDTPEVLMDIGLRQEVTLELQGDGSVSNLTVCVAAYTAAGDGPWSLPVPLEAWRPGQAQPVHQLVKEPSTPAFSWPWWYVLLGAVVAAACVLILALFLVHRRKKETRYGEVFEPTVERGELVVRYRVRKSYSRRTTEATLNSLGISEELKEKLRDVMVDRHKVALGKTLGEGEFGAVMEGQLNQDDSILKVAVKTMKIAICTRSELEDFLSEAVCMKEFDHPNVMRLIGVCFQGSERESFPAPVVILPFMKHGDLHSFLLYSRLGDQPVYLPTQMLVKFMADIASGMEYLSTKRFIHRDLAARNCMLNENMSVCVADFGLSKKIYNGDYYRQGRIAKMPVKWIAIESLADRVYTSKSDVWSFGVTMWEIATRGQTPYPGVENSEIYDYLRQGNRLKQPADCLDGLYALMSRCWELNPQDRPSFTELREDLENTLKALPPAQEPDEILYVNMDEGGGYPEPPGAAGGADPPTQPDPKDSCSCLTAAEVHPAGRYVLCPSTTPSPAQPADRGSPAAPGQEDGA
Procedure, shortened: (§1)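 Enzyme, fluorescent-labeled peptide substrate and compound were mixed, then ATP was added at each enzyme's Km. Buffer was 50 mM HEPES pH 7.5, 10 mM MgCl2, 1 mM EGTA, 0.01% Brij 35, 1 mM DTT at RT. After 60 min, EDTA quench and 30 min with Eu-anti-phosphotyrosine-site antibody; TR-FRET read gave IC50.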

FLT3 = biological target: T2, FLT3 (Homo sapiens, UniProt P36888); experiment: TR-FRET kinase activity assay, FLT3; type: biochemical; conditions: ATP at Km, 60 minutes
T2 sequence (P36888 27-993): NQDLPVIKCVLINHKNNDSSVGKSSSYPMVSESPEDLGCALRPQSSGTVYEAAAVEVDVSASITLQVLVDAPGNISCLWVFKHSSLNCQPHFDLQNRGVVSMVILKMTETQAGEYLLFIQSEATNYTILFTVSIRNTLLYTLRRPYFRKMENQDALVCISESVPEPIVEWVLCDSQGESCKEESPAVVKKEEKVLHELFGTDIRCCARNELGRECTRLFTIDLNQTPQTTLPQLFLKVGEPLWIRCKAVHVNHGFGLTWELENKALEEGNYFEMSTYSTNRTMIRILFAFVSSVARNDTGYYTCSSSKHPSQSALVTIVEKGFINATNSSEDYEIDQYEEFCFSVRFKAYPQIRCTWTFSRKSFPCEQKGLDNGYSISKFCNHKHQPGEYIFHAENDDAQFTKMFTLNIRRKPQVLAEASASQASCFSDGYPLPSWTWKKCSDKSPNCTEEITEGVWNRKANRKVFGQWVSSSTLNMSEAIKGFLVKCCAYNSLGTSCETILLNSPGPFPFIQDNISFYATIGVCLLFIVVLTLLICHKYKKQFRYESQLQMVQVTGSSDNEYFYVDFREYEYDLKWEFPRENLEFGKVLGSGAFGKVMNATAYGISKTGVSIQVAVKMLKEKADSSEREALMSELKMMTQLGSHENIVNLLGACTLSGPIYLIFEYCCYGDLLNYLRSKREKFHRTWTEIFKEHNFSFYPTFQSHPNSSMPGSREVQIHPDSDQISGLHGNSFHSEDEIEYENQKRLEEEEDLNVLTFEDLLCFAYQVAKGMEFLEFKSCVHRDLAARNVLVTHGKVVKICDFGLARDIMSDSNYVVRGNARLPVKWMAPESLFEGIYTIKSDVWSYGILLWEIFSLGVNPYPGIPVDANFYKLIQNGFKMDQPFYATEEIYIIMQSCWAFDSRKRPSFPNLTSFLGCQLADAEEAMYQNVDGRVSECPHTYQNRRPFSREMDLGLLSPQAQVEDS
Procedure, shortened: as §1

Row | Compound | IC50 (AXL) | IC50 (FLT3)
1 | CCCCNc1ncc2c(=O)n(-c3ccc(CN4CCOCC4)cc3)cc([C@H]3CC[C@H](O)CC3)c2n1 [Compound 101] | 100 to 1000 nM | 100 to 1000 nM
2 | CCCCNc1ncc2c(NCc3ccc(F)cc3)ncc([C@H]3CC[C@H](O)CC3)c2n1 [Compound 103, 4-[2-(butylamino)-5-[(4-fluorophenyl)methylamino]pyrido[4,3-d]pyrimidin-8-yl]cyclohexanol hydrochloride] | 100 to 1000 nM | ≤ 100 nM
3 | CCCCNc1ncc2c(OC3CCOCC3)ncc([C@H]3CC[C@H](O)CC3)c2n1 [Compound 104, (1r,4r)-4-(2-(butylamino)-5-((tetrahydro-2H-pyran-4-yl)oxy)pyrido[4,3-d]pyrimidin-8-yl)cyclohexanol] | ≤ 100 nM | ≤ 100 nM
4 | CCCCNc1ncc2c(OC)ncc([C@H]3CC[C@H](O)CC3)c2n1 [Compound 127] | ≤ 100 nM | ≤ 100 nM
5 | CCCCNc1ncc2c(OC3CCNCC3)ncc([C@H]3CC[C@H](O)CC3)c2n1 [Compound 129] | ≤ 100 nM | ≤ 100 nM
6 | CCCCC[C@H](C)Nc1ncc2c(OC3CCNCC3)ncc([C@H]3CC[C@H](O)CC3)c2n1 [Compound 130] | ≤ 100 nM | 1000 to 10000 nM
7 | CCCCNc1ncc2c(OC3CCN(C)CC3)ncc([C@H]3CC[C@H](O)CC3)c2n1 [Compound 131] | ≤ 100 nM | ≤ 100 nM
8 | O[C@H]1CC[C@H](c2cnc(OC3CCOCC3)c3cnc(NC4CCCC4)nc32)CC1 [Compound 132] | ≤ 100 nM | ≤ 100 nM
9 | CCCC(C)Nc1ncc2c(OC3CCOCC3)ncc([C@H]3CC[C@H](O)CC3)c2n1 (some centres unmarked) [Compound 133] | 100 to 1000 nM | 1000 to 10000 nM
10 | O[C@H]1CC[C@H](c2cnc(OC3CCOCC3)c3cnc(Nc4ccc(Cl)cc4)nc32)CC1 [Compound 134, (1r,4r)-4-(2-((4-chlorophenyl)amino)-5-((tetrahydro-2H-pyran-4-yl)oxy)pyrido[4,3-d]pyrimidin-8-yl)cyclohexan-1-ol] | ≤ 100 nM | 100 to 1000 nM
11 | CC(C)Nc1ncc2c(OC3CCNCC3)ncc([C@H]3CC[C@H](O)CC3)c2n1 [Compound 135] | ≤ 100 nM | 1000 to 10000 nM
12 | O[C@H]1CC[C@H](c2cnc(OC3CCNCC3)c3cnc(N[C@H]4CCOC4)nc32)CC1 [Compound 136] | 100 to 1000 nM | 1000 to 10000 nM
13 | C[C@@H](CO)Nc1ncc2c(OC3CCOCC3)ncc([C@H]3CC[C@H](O)CC3)c2n1 [Compound 137] | 1000 to 10000 nM | 1000 to 10000 nM
14 | CCC(C)Nc1ncc2c(OC3CCOCC3)ncc([C@H]3CC[C@H](O)CC3)c2n1 (some centres unmarked) [Compound 140] | 100 to 1000 nM | 1000 to 10000 nM
15 | CC1(C)CC(Nc2ncc3c(OC4CCOCC4)ncc([C@H]4CC[C@H](O)CC4)c3n2)C1 [Compound 144] | 100 to 1000 nM | ≤ 100 nM
16 | COC[C@@H](C)Nc1ncc2c(OC3CCOCC3)ncc([C@H]3CC[C@H](O)CC3)c2n1 [Compound 145] | 1000 to 10000 nM | 1000 to 10000 nM
17 | CCCC(C)Nc1ncc2c(N(C)C3CCN(C)CC3)ncc([C@H]3CC[C@H](O)CC3)c2n1 (some centres unmarked) [Compound 146] | 1000 to 10000 nM | 1000 to 10000 nM
18 | CCCC(C)Nc1ncc2c(OC3CCC(OC)CC3)ncc([C@H]3CC[C@H](O)CC3)c2n1 (some centres unmarked) [Compound 147] | 100 to 1000 nM | 1000 to 10000 nM
19 | CCCC(C)Nc1ncc2c(OC3CCC(F)(F)CC3)ncc([C@H]3CC[C@H](O)CC3)c2n1 (some centres unmarked) [Compound 153] | 1000 to 10000 nM | 1000 to 10000 nM
20 | CCCC(C)Nc1ncc2c(OC[C@H]3CC[C@@H](O)CC3)ncc([C@H]3CC[C@H](O)CC3)c2n1 (some centres unmarked) [Compound 157] | 100 to 1000 nM | 1000 to 10000 nM
21 | CCCC(C)Nc1ncc2c(NC3CCNCC3)ncc([C@H]3CC[C@H](O)CC3)c2n1 (some centres unmarked) [Compound 158] | ≤ 100 nM | 100 to 1000 nM
22 | CCCC(C)Nc1ncc2c(OC[C@H]3CC[C@H](O)CC3)ncc([C@H]3CC[C@H](O)CC3)c2n1 (some centres unmarked) [Compound 160] | 100 to 1000 nM | 1000 to 10000 nM
23 | CCCC(C)Nc1ncc2c(OC3CC(C)(C)N(C)C(C)(C)C3)ncc([C@H]3CC[C@H](O)CC3)c2n1 (some centres unmarked) [Compound 161] | ≤ 100 nM | 100 to 1000 nM
24 | CN1CCC(Nc2ncc3c(OC4CCNCC4)ncc([C@H]4CC[C@H](O)CC4)c3n2)C1=O (some centres unmarked) [Compound 162] | 1000 to 10000 nM | 1000 to 10000 nM
25 | Cc1nccn1CCNc1ncc2c(OC3CCNCC3)ncc([C@H]3CC[C@H](O)CC3)c2n1 [Compound 163] | 1000 to 10000 nM | 1000 to 10000 nM

Next, values leading:

Row | IC50 (AXL) | IC50 (FLT3) | Compound
26 | 100 to 1000 nM | 1000 to 10000 nM | CCCC(C)Nc1ncc2c(=O)n(C3CCN(C(C)=O)CC3)cc([C@H]3CC[C@H](O)CC3)c2n1 (some centres unmarked) [Compound 128, 6-(1-acetylpiperidin-4-yl)-8-((1r,4r)-4-hydroxycyclohexyl)-2-(pentan-2-ylamino)pyrido[4,3-d]pyrimidin-5(6H)-one hydrochloride]
27 | 100 to 1000 nM | 1000 to 10000 nM | CCCC(C)Nc1ncc2c(=O)n(C3CCN(S(C)(=O)=O)CC3)cc([C@H]3CC[C@@H](O)CC3)c2n1 (some centres unmarked) [Compound 138]
28 | 100 to 1000 nM | 100 to 1000 nM | CCCC(C)Nc1ncc2c(O[C@H]3CC[C@H](O)CC3)ncc([C@H]3CC[C@H](O)CC3)c2n1 (some centres unmarked) [Compound 139]
29 | 100 to 1000 nM | 1000 to 10000 nM | CCCC(C)Nc1ncc2c(OC3CCS(=O)(=O)CC3)ncc([C@H]3CC[C@H](O)CC3)c2n1 (some centres unmarked) [Compound 141]
30 | 1000 to 10000 nM | 1000 to 10000 nM | CCCC(C)Nc1ncc2c(OC3CCS(=O)(=O)CC3)ncc([C@H]3CC[C@@H](O)CC3)c2n1 (some centres unmarked) [Compound 142]
31 | 100 to 1000 nM | 1000 to 10000 nM | CCCC(C)Nc1ncc2c(OC3CCN(S(C)(=O)=O)CC3)ncc([C@H]3CC[C@H](O)CC3)c2n1 (some centres unmarked) [Compound 143]
32 | 100 to 1000 nM | 1000 to 10000 nM | CCCC(C)Nc1ncc2c(O[C@H]3CC[C@@H](O)CC3)ncc([C@H]3CC[C@H](O)CC3)c2n1 (some centres unmarked) [Compound 148]
33 | 100 to 1000 nM | 1000 to 10000 nM | CCCC(C)Nc1ncc2c(=O)n(C3CCN(CC(=O)N(C)C)CC3)cc([C@H]3CC[C@@H](O)CC3)c2n1 (some centres unmarked) [Compound 149]
34 | 100 to 1000 nM | 1000 to 10000 nM | CCCC(C)Nc1ncc2c(=O)n(C3CCN(CCOC)CC3)cc([C@H]3CC[C@H](O)CC3)c2n1 (some centres unmarked) [Compound 150]
35 | 100 to 1000 nM | 1000 to 10000 nM | CCCC(C)Nc1ncc2c(=O)n(C3CCN(CCC(=O)N(C)C)CC3)cc([C@H]3CC[C@H](O)CC3)c2n1 (some centres unmarked) [Compound 151]
36 | 1000 to 10000 nM | 1000 to 10000 nM | CCC[C@@H](C)Nc1ncc2c(=O)n(C3CCNCC3)cc([C@H]3CC[C@H](O)CC3)c2n1 [Compound 152]
37 | ≤ 100 nM | 100 to 1000 nM | CCCC(C)Nc1ncc2c(NC3CCN(C)CC3)ncc([C@H]3CC[C@H](O)CC3)c2n1 (some centres unmarked) [Compound 154]
38 | 100 to 1000 nM | 1000 to 10000 nM | CCCC(C)Nc1ncc2c(N3CCC(NC)CC3)ncc([C@H]3CC[C@H](O)CC3)c2n1 (some centres unmarked) [Compound 155]
39 | 100 to 1000 nM | 1000 to 10000 nM | CCCC(C)Nc1ncc2c(N3CC[C@@H](N(C)C)C3)ncc([C@H]3CC[C@H](O)CC3)c2n1 (some centres unmarked) [Compound 156]
40 | 1000 to 10000 nM | 1000 to 10000 nM | CCCC(C)Nc1ncc2c(N3CC[C@H](N(C)C)C3)ncc([C@H]3CC[C@H](O)CC3)c2n1 (some centres unmarked) [Compound 159]
